Read-outs that look alike come from different tables or passages of the source.
Experiments:
μ-opioid receptor [1] = molecular target: T1, μ-opioid receptor (Homo sapiens, UniProt P35372); assay: cell-based; parameters: purchased Perkin Elmer, Shelton, Conn; conditions: U2OS cells; for Emax: read-out: β-Arr2 μ Emax; for EC50: read-out: β-Arr2 μ EC50
κ-opioid receptor [2] = molecular target: T2, κ-opioid receptor (Homo sapiens, UniProt P41145); assay: κ-opioid receptor [35S]GTPγS functional assay, HEK-293 or CHO cells; assay type: biochemical; parameters: expressed in transfected cells; host or cells: HEK-293; conditions: for Emax: relative to U69,593
Procedure: (§1) Plates were incubated for 30 min at a temperature of about 25° C. with shaking.

κ-opioid receptor [3] = molecular target: T2, κ-opioid receptor; assay: κ-opioid receptor radioligand binding assay ([3H]-U69,593); parameters: expressed in transfected cells; host or cells: HEK-293
Procedure: κ-opioid Receptor Binding Assay Procedures: Membranes from recombinant HEK-293 cells expressing the human κ opioid receptor (κ) (cloned in house) were prepared by lysing cells in ice cold hypotonic buffer (2.5 mM MgCl2, 50 mM HEPES, pH 7.4) (10 mL/10 cm dish) followed by homogenization with a tissue grinder/Teflon pestle. Membranes were collected by centrifugation at 30,000×g for 15 min at 4° C. and pellets were resuspended in hypotonic buffer to a final concentration of 1-3 mg/mL. Protein concentrations were determined using the BioRad protein assay reagent with bovine serum albumen as standard. Aliquots of κ receptor membranes were stored at −80° C.
Radioligand dose displacement assays used 0.4 nM [^3H]-U69,593 (GE Healthcare, Piscataway, N.J.; 40 Ci/mmole) with 15 μg membrane protein (recombinant κ opioid receptor expressed in HEK 293 cells; in-house prep) in a final volume of 200 μl binding buffer (5% DMSO, 50 mM Trizma base, pH 7.4). Non-specific binding was determined in the presence of 10 μM unlabeled naloxone or U69,593. All reactions were performed in 96-well polypropylene plates for 1 hr at a temperature of about 25° C.

κ-opioid receptor [4] = molecular target: T2, κ-opioid receptor; assay: κ-opioid receptor GTPγS functional assay, U2OS cells; assay type: biochemical; parameters: expressed in transfected cells; host or cells: U-2 OS
Procedure: as §1

μ-opioid receptor [5] = molecular target: T1, μ-opioid receptor; assay: μ-opioid receptor radioligand binding assay ([3H]-diprenorphine); parameters: purchased Perkin Elmer, Shelton, Conn; host or cells: HEK-293 or CHO
Procedure: μ-opioid Receptor Binding Assay Procedures: Radioligand dose-displacement binding assays for μ-opioid receptors used 0.3 nM [^3H]-diprenorphine (Perkin Elmer, Shelton, Conn.), with […] membrane protein/well in a final volume of 500 μl binding buffer (10 mM MgCl2, 1 mM EDTA, 5% DMSO, 50 mM HEPES, pH 7.4). Reactions were carried out in the absence or presence of increasing concentrations of unlabeled naloxone. All reactions were conducted in 96-deep well polypropylene plates for 2 hr at room temperature. […] The data were analyzed using the one-site competition curve fitting functions in GraphPad PRISM™ v. 3.0 or higher (San Diego, Calif.), or an in-house function for one-site competition curve-fitting.

μ-opioid receptor [6] = molecular target: T1, μ-opioid receptor; assay: biochemical; parameters: purchased Perkin Elmer, Shelton, Conn; host or cells: HEK-293 or CHO; conditions: HEK-293 or CHO cells; for EC50: read-out: GTPγS μ EC50; for Emax: relative to DAMGO, read-out: GTPγS μ Emax
μ-opioid receptor [7] = molecular target: T1, μ-opioid receptor; assay: μ-opioid receptor GTPγS functional assay, U2OS cells; conditions: for Emax: read-out: GTPγS μ Emax
κ-opioid receptor [8] = molecular target: T2, κ-opioid receptor; assay: κ-opioid receptor β-Arr2 activity response, U2OS cells; assay type: cell-based; parameters: expressed in transfected cells; host or cells: U-2 OS
ORL-1 receptor = molecular target: T3, ORL-1 receptor (Homo sapiens, UniProt P41146); assay: ORL-1 receptor radioligand binding assay ([3H]-nociceptin); conditions: HEK-293 or CHO cells; read-out: Ki (nM) Opioid Receptor ORL-1
T3 construct: host or cells: HEK-293
Procedure: ORL-1 Receptor Binding Assay Procedure: Membranes from recombinant HEK-293 cells expressing the human opioid receptor-like receptor (ORL-1) (Perkin Elmer, Shelton, Conn.) were prepared by lysing cells in ice-cold hypotonic buffer (2.5 mM MgCl2, 50 mM HEPES, pH 7.4) (10 ml/10 cm dish) followed by homogenization with a tissue grinder/Teflon pestle. Membranes were collected by centrifugation at 30,000×g for 15 min at 4° C. and pellets resuspended in hypotonic buffer to a final concentration of 1-3 mg/ml. Protein concentrations were determined using the BioRad protein assay reagent with bovine serum albumen as standard. Aliquots of the ORL-1 receptor membranes were stored at −80° C.
Radioligand binding assays (screening and dose-displacement) used 0.1 nM [^3H]-nociceptin (Perkin Elmer, Shelton, Conn.; 87.7 Ci/mmole) with 12 μg membrane protein in a final volume of 500 μl binding buffer (10 mM MgCl2, 1 mM EDTA, 5% DMSO, 50 mM HEPES, pH 7.4). Non-specific binding was determined in the presence of […] unlabeled nociceptin (American Peptide Company). All reactions were performed in 96-deep well polypropylene plates for 1 h at room temperature. […] The data from screening and dose-displacement experiments were analyzed using Microsoft Excel and the curve fitting functions in GraphPad PRISM™, v. 3.0 or higher, respectively, or an in-house function for one-site competition curve-fitting.

[9] = HEK-293 or CHO cells, read-out: GTPγS κ EC50
[10] = HEK-293 or CHO cells, read-out: Ki (nM) Opioid Receptor κ
[11] = U2OS cells, read-out: GTPγS κ EC50
[12] = HEK-293 or CHO cells, read-out: Ki (nM) Opioid Receptor μ
[13] = U2OS cells, read-out: β-Arr2 κ EC50

T2 sequence (P41145 whole entry): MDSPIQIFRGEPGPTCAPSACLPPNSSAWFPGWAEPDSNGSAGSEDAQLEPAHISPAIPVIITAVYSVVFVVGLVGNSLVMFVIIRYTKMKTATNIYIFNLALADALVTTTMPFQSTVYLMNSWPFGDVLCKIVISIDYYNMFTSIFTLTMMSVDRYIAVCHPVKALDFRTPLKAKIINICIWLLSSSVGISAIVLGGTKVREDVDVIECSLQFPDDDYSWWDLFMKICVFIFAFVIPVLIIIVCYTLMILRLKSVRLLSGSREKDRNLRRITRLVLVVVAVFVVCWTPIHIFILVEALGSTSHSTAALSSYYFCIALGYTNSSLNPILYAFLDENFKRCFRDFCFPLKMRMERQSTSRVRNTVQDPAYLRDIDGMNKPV
T1 sequence (P35372 whole entry, species assumed): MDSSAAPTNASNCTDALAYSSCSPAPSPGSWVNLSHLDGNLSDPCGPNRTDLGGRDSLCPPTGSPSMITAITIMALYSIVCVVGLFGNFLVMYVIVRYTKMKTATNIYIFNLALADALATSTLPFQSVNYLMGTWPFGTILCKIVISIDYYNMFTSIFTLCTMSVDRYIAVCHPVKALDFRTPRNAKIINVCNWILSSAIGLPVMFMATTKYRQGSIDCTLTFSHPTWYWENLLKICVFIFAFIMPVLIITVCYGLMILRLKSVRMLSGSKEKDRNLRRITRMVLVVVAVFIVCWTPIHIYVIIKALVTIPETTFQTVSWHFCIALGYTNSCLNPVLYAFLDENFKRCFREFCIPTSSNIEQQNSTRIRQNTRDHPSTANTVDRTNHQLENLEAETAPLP
T3 sequence (P41146 whole entry): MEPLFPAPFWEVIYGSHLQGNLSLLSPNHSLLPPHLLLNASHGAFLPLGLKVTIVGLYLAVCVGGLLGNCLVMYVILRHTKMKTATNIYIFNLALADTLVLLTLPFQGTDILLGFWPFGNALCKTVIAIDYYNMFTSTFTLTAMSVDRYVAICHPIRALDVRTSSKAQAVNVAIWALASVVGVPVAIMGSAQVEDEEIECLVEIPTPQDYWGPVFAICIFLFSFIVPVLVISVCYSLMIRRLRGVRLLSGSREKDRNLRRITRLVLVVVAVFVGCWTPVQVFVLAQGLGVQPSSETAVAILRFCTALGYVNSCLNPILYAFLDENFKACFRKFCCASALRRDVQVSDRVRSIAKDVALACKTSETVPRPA

Compound	Emax (μ-opioid receptor [1]) [%]	EC50 (κ-opioid receptor [2]; [9]) [nM]	Emax (κ-opioid receptor [2]; HEK-293 or CHO cells) [%]	Ki (κ-opioid receptor [3]; [10]) [nM]	Emax (κ-opioid receptor [4]; U2OS cells) [%]	EC50 (κ-opioid receptor [4]; [11]) [nM]	Ki (μ-opioid receptor [5]; [12]) [nM]	EC50 (μ-opioid receptor [6]) [nM]	Emax (μ-opioid receptor [6]) [%]	EC50 (μ-opioid receptor [7]) [nM]	Emax (μ-opioid receptor [7]) [%]	Emax (κ-opioid receptor [8]; U2OS cells) [%]	EC50 (κ-opioid receptor [8]; [13]) [nM]	EC50 (κ-opioid receptor [2]) [nM]	Ki (κ-opioid receptor [3]) [nM]	EC50 (κ-opioid receptor [4]) [nM]	Ki (μ-opioid receptor [5]) [nM]	EC50 (κ-opioid receptor [8]) [nM]	EC50 (μ-opioid receptor [1]) [µM]	Ki (ORL-1 receptor) [nM]
COC(=O)[C@H](C)NCC[C@]12CCN(CC3CC3)[C@H](Cc3ccc(OC)cc31)[C@@H]2C [Compound 38, methyl (2-((2R,6R,11R)-3-(cyclopropyl-methyl)-8-methoxy-11-methyl-2,3,4,5-tetrahydro-2,6-methanobenzo[d]azocin-6(1H)-yl)ethyl)-L-alaninate]	-0.17 ± 0.93	287 ± 30	109 ± 5.46	0.78 ± 0.14	112 ± 2.91	2.11 ± 0.23	94.7 ± 18.6	551 ± 173	15.8 ± 1.03	137 ± 16.1	53 ± 3.51	70 ± 2	141 ± 45.5	–	–	–	–	–	–	–
COc1ccc2c(c1)[C@]1(CCO)CCN(CC3CC3)[C@H](C2)[C@@H]1C [Compound 43, 2-((2R,6S,11R)-3-(cyclopropylmethyl)-8-methoxy-11-methyl-2,3,4,5-tetrahydro-2,6-methanobenzo[d]azocin-6(1H)-yl)ethan-1-ol]	-1	–	97.7 ± 5.36	–	102 ± 3.71	–	–	1150 ± 199	22 ± 1.58	99 ± 5.84	107 ± 5.83	59.3 ± 3.18	–	355 ± 63.6	3.63 ± 0.7	17.8 ± 1.45	233 ± 46.9	494 ± 140	–	–
COc1ccc2c(c1)[C@]1(CCOCc3ccccc3)CCN(CC3CC3)[C@H](C2)[C@@H]1C [Compound 45, (2R,6S,11R)-6-(2-(benzyloxy)ethyl)-3-(cyclopropylmethyl)-8-methoxy-11-methyl-1,2,3,4,5,6-hexahydro-2,6-methanobenzo[d]azocine]	1.33 ± 0.33	16.3 ± 0.74	104 ± 5.03	0.16 ± 0.03	96.3 ± 5.17	0.95 ± 0.14	543 ± 116	267 ± 20.1	16.3 ± 0.88	38 ± 2.09	103 ± 6.47	84 ± 2.08	26.7 ± 8.55	–	–	–	–	–	–	–
C[C@H]1[C@H]2Cc3ccc(O)cc3C1(CCN[C@H]1C[C@H]3CCC[C@@H](C1)N3[C@@H]1C[C@@H]3CCCC[C@@H](C3)C1)CCN2C [Compound 63, (2R,6R,11R)-6-(2-(((1R,3R,5S)-9-((1R,6S,8r)-bicyclo[4.3.1]decan-8-yl)-9-azabicyclo[3.3.1]nonan-3-yl)amino)-ethyl)-3,11-dimethyl-1,2,3,4,5,6-hexahydro-2,6-methanobenzo[d]azocin-8-ol]	21.8 ± 1.31	–	–	–	–	–	–	2.43 ± 0.67	74.7 ± 2.4	–	–	–	–	–	–	–	–	–	0.00123 ± 0.00031	125 ± 24.2
C[C@H]1[C@H]2Cc3ccc(O)cc3C1(CCN[C@H]1C[C@H]3CCC[C@@H](C1)N3CC[C@@H]1CC[C@H]3C[C@@H]1C3(C)C)CCN2C [Compound 64, (2R,6R,11R)-6-(2-(((1R,3S,5S)-9-(2-((1S,2S,5S)-6,6-dimethylbicyclo-[3.1.1]heptan-2-yl)ethyl)-9-azabicyclo-[3.3.1]nonan-3-yl)amino)ethyl)-3,11-dimethyl-1,2,3,4,5,6-hexahydro-2,6-methanobenzo[d]azocin-8-ol]	51.8 ± 7.76	–	–	–	–	–	–	19.6 ± 5.19	43.5 ± 2.96	–	–	–	–	–	–	–	–	–	7.45 ± 0.929	563 ± 97.5
